One data set in a line: Solubility pH 7. The note with it: pH 7, aqueous buffer. The data set is classed as physicochemical.
The target of a further data set is T1, LMP2 (Homo sapiens, UniProt P28065+P40306).
T1 construct: endogenous in cells; host or cells: MOLT-4
As to the kind of experiment: ProCISE proteasome subunit assay, LMP2. The data set is classed as biochemical. To be noted: MOLT4 lysate Hu 1 h. The method, then: This assay was used to assess the inhibitory activity against each of LMP2, LMP7, MECL1, β1, β2, and β5. Briefly, test compounds were serially diluted in DMSO at 100× concentration, then diluted to 10× in aqueous hypotonic lysis buffer. Lysate from the human acute lymphoblastic leukemia cell line, MOLT-4, was treated for 1 hour at 25° C. with compound at a final 1× concentration. […] Following this, lysate was denatured in guanidine hydrochloride, and subunits bound to probe were isolated with streptavidin-conjugated sepharose beads. Individual subunits were probed with subunit-specific primary antibodies, followed by HRP-conjugated secondary antibodies. A chemiluminescent substrate was used to generate signal associated with HRP binding, which was detected on a plate reader. Luminescent signal was normalized to protein content, then, percent activity calculated relative to DMSO-treated controls to generate IC50 curves.

In the next data set the target is T2, β5 (Homo sapiens, UniProt P20618+P28074).
T2 construct: endogenous in cells; host or cells: MOLT-4
As to the kind of experiment: ProCISE proteasome subunit assay, β5. The data set is classed as biochemical. In a few lines:
(§1)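 MOLT-4 cell lysate was incubated with compound for 1 h at 25° C, then a subunit-binding probe was applied; probe-bound subunits were pulled down on streptavidin beads after guanidine denaturation and detected with subunit-specific antibodies by HRP chemiluminescence. Signal was normalized to protein and expressed as percent of DMSO control to fit IC50.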

Data set [1] has as its target c20S (constitutive 20S proteasome) (Homo sapiens, UniProt P20618+P28074). As to the kind of experiment: 20S proteasome assay, chymotrypsin-like activity (LLVY), c20S. The data set is classed as biochemical. The note with it: LLVY c20S Hu 1 h CONT: IC50 (nM), succinyl-Leu-Leu-Val-Tyr-AMC. The source says: (§2) Assay buffer consisted of TE buffer [20 mmol/L Tris (pH 8.0), 0.5 mmol/L EDTA] with (20S) or without (cell lysate) 0.03% SDS. Reactions were initiated by enzyme or lysate addition and monitored for AMC product formation at 27jC with a plate-based spectofluorometer (Tecan).

The target in data set [2] is i20S (20S immunoproteasome) (Homo sapiens, UniProt P20618+P28062). The data set is described as follows: 20S proteasome assay, chymotrypsin-like activity (LLVY), i20S. The data set is classed as biochemical. The note with it: LLVY i20S Hu 1 h CONT: IC50 (nM), succinyl-Leu-Leu-Val-Tyr-AMC.
Source text: as §2

Another data set concerns the target T3, LMP7 (Homo sapiens, UniProt P20618+P28062).
T3 construct: endogenous in cells; host or cells: MOLT-4
As to the kind of experiment: ProCISE proteasome subunit assay, LMP7. In kind it is biochemical. In a few lines:
as §1

Converted amounts (≈) assume the structure as drawn.

For orientation: solubility means the concentration that dissolves in the medium under given conditions. As a reminder, the IC50 is the concentration that inhibits the measured activity by half. Low values mean greater potency in that assay, high ones weaker potency in that assay.

As for `C[C@H](NC(=O)c1cccc(=O)[nH]1)C(=O)N[C@@H](Cc1ccccc1)C(=O)[C@@]1(C)CO1` [Compound C-3016, N—((S)-1-(((S)-1-((R)-2-Methyloxiran-2-yl)-1-oxo-3-phenylpropan-2-yl)amino)-1-oxopropan-2-yl)-6-oxo-1,6-dihydropyridine-2-carboxamide], the solubility in the data set “Solubility pH 7” was 7520 µg/mL (≈ 18900 µM). At LMP2, this compound came in with an IC50 of 55 nM.
The like results for `C[C@]1(C(=O)[C@H](CC2CCCC2)NC(=O)[C@H](CO)NC(=O)c2cccc(=O)[nH]2)CO1` [Compound C-3019, N—((S)-1-(((S)-3-Cyclopentyl-1-((R)-2-methyloxiran-2-yl)-1-oxopropan-2-yl)amino)-3-hydroxy-1-oxopropan-2-yl)-6-oxo-1,6-dihydropyridine-2-carboxamide] were, in that order, 639 µg/mL (≈ 1580 µM) and 16.8 nM.
Turning to `COc1ccc(C[C@H](NC(=O)c2cccc(=O)[nH]2)C(=O)N[C@@H](CC2CCCC2)C(=O)[C@@]2(C)CO2)cc1` [Compound C-3014, N—((S)-1-(((S)-3-Cyclopentyl-1-((R)-2-methyloxiran-2-yl)-1-oxopropan-2-yl)amino)-3-(4-methoxyphenyl)-1-oxopropan-2-yl)-6-oxo-1,6-dihydropyridine-2-carboxamide], in “Solubility pH 7”, the concentration in solution (solubility) came to 69.4 µg/mL (≈ 140 µM). Further, inhibition at LMP2 was half-maximal at 34.9 nM (IC50).
`C[C@H](NC(=O)c1cccc(=O)[nH]1)C(=O)N[C@@H](CC1CCCC1)C(=O)[C@@]1(C)CO1` [Compound C-3018, N—((S)-1-(((S)-3-Cyclopentyl-1-((R)-2-methyloxiran-2-yl)-1-oxopropan-2-yl)amino)-1-oxopropan-2-yl)-6-oxo-1,6-dihydropyridine-2-carboxamide] had a solubility in “Solubility pH 7” of 516 µg/mL (≈ 1320 µM). The compound also gave an IC50 against LMP2 of 24.9 nM.
As for `CC[C@@](C)(O)CC(=O)N[C@H](C)C(=O)N[C@@H](Cc1ccc(OC)cc1)C(=O)N[C@@H](CC1CCCC1)C(=O)[C@@]1(C)CO1` [Compound C-2052, (R)—N—((R)-1-(((S)-1-(((S)-3-cyclopentyl-1-((R)-2-methyloxiran-2-yl)-1-oxopropan-2-yl)amino)-3-(4-methoxyphenyl)-1-oxopropan-2-yl)amino)-1-oxopropan-2-yl)-3-hydroxy-3-methylpentanamide], in the data set “Solubility pH 7”, the solubility came to 160 µg/mL (≈ 286 µM). Besides, the IC50 at β5 (MOLT4 lysate Hu 1 h) was found to be 560 nM; in data set [1] it was 316 nM; in data set [2] it was 10.8 nM; on LMP7 (MOLT4 lysate Hu 1 h), 38.5 nM.
The like results for `COc1ccc(C[C@H](NC(=O)[C@@H](C)NC(=O)C2=CCCC2)C(=O)N[C@@H](CC2CCCC2)C(=O)[C@@]2(C)CO2)cc1` [Compound C-2037, N—((R)-1-(((S)-1-(((S)-3-cyclopentyl-1-((R)-2-methyloxiran-2-yl)-1-oxopropan-2-yl)amino)-3-(4-methoxyphenyl)-1-oxopropan-2-yl)amino)-1-oxopropan-2-yl)cyclopent-1-enecarboxamide] were, in that order, 3.6 µg/mL (≈ 6.67 µM), 9630 nM, 6080 nM, 891 nM and 466 nM.
In “Solubility pH 7”, `COc1ccc(C[C@H](NC(=O)[C@@H](C)NC(=O)c2cnc(C)s2)C(=O)N[C@@H](CC2CCCC2)C(=O)[C@@]2(C)CO2)cc1` [Compound C-2026, N—((R)-1-(((S)-1-(((S)-3-cyclopentyl-1-((R)-2-methyloxiran-2-yl)-1-oxopropan-2-yl)amino)-3-(4-methoxyphenyl)-1-oxopropan-2-yl)amino)-1-oxopropan-2-yl)-2-methylthiazole-5-carboxamide] returned a solubility of 126 µg/mL (≈ 221 µM). The IC50 came out at 3450 nM against β5 (MOLT4 lysate Hu 1 h), 1360 nM in data set [1], 64.6 nM in data set [2] and 170 nM at LMP7 (MOLT4 lysate Hu 1 h).
Take `COc1ccc(C[C@H](NC(=O)[C@@H](C)NC(=O)C2=C(C)c3ccccc3C2)C(=O)N[C@@H](Cc2ccccc2)C(=O)[C@@]2(C)CO2)cc1` [Compound C-2048, N—((R)-1-(((S)-3-(4-methoxyphenyl)-1-(((S)-1-((R)-2-methyloxiran-2-yl)-1-oxo-3-phenylpropan-2-yl)amino)-1-oxopropan-2-yl)amino)-1-oxopropan-2-yl)-3-methyl-1H-indene-2-carboxamide]: in the data set “Solubility pH 7”, the concentration in solution (solubility) came to 1.4 µg/mL (≈ 2.3 µM). Also, the IC50 at β5 (ProCISE beta5 MOLT4 lysate Hu 1 h CONT: IC50 (nM)) amounted to 379 nM; in data set [1], 411 nM; in data set [2], 55.2 nM; against LMP7 (ProCISE LMP7 MOLT4 lysate Hu 1 h CONT: IC50 (nM)), 48.6 nM.
As for `COc1ccc(C[C@H](NC(=O)[C@@H](C)NC(=O)CC(C)(C)O)C(=O)N[C@@H](Cc2ccccc2)C(=O)[C@@]2(C)CO2)cc1` [Compound C-2056, 3-hydroxy-N—((R)-1-(((S)-3-(4-methoxyphenyl)-1-(((S)-1-((R)-2-methyloxiran-2-yl)-1-oxo-3-phenylpropan-2-yl)amino)-1-oxopropan-2-yl)amino)-1-oxopropan-2-yl)-3-methylbutanamide], the concentration in solution in the data set “Solubility pH 7” (solubility) came to 3730 µg/mL (≈ 6730 µM). Besides, the IC50 on β5 (MOLT4 lysate Hu 1 h) is 291 nM; in data set [1], 191 nM; in data set [2], 28.9 nM; at LMP7 (MOLT4 lysate Hu 1 h), 52.2 nM.
In “Solubility pH 7”, `COc1ccc(C[C@H](NC(=O)[C@@H]2CCC(=O)N2)C(=O)N[C@@H](Cc2ccccc2)C(=O)[C@@]2(C)CO2)cc1` [Compound C-3013, (S)—N—((S)-3-(4-methoxyphenyl)-1-(((S)-1-((R)-2-methyloxiran-2-yl)-1-oxo-3-phenylpropan-2-yl)amino)-1-oxopropan-2-yl)-5-oxopyrrolidine-2-carboxamide] showed a solubility of 1910 µg/mL (≈ 3870 µM). The IC50 against β5 (MOLT4 lysate Hu 1 h) turned out to be 14200 nM; in data set [1], 15900 nM; in data set [2], 4050 nM; on LMP7 (MOLT4 lysate Hu 1 h), 3480 nM.
In the data set “Solubility pH 7”, `COc1ccc(C[C@H](NC(=O)[C@@H](C)NC(=O)Cc2cc(C)no2)C(=O)N[C@@H](CC2CCCC2)C(=O)[C@@]2(C)CO2)cc1` [Compound C-2015, (S)—N—((S)-3-cyclopentyl-1-((R)-2-methyloxiran-2-yl)-1-oxopropan-2-yl)-3-(4-methoxyphenyl)-2-((R)-2-(2-(3-methylisoxazol-5-yl)acetamido)propanamido)propanamide] registered a solubility of 169 µg/mL (≈ 298 µM). The IC50 amounted to 30400 nM against β5 (MOLT4 lysate Hu 1 h), 18600 nM in data set [1], 2920 nM in data set [2] and 3060 nM at LMP7 (MOLT4 lysate Hu 1 h).
Turning to `CC[C@](C)(O)CC(=O)N[C@H](C)C(=O)N[C@@H](Cc1ccc(OC)cc1)C(=O)N[C@@H](CC1CCCC1)C(=O)[C@@]1(C)CO1` [Compound C-2051, (S)—N—((R)-1-(((S)-1-(((S)-3-cyclopentyl-1-((R)-2-methyloxiran-2-yl)-1-oxopropan-2-yl)amino)-3-(4-methoxyphenyl)-1-oxopropan-2-yl)amino)-1-oxopropan-2-yl)-3-hydroxy-3-methylpentanamide], the solubility in the data set “Solubility pH 7” came to 241 µg/mL (≈ 430 µM). For the same compound, the IC50 on β5 (MOLT4 lysate Hu 1 h) turned out to be 883 nM; in data set [1], 459 nM; in data set [2], 34 nM; at LMP7 (MOLT4 lysate Hu 1 h), 54.3 nM.
The like results for `COc1ccc(C[C@H](NC(=O)[C@@H](NC(=O)OCc2ccccc2)C2COC2)C(=O)N[C@@H](Cc2ccccc2)C(=O)[C@@]2(C)CO2)cc1` [Compound C-2035, benzyl ((S)-2-(((S)-3-(4-methoxyphenyl)-1-(((S)-1-((R)-2-methyloxiran-2-yl)-1-oxo-3-phenylpropan-2-yl)amino)-1-oxopropan-2-yl)amino)-1-(oxetan-3-yl)-2-oxoethyl)carbamate] were, in that order, 3.1 µg/mL (≈ 4.92 µM), 21.1 nM, 15.3 nM, 4.6 nM and 13.2 nM.
For `COc1ccc(C[C@H](NC(=O)[C@@]2(C)CCC(=O)N2)C(=O)N[C@@H](Cc2ccccc2)C(=O)[C@@]2(C)CO2)cc1` [Compound C-3010, (R)—N—((S)-3-(4-methoxyphenyl)-1-(((S)-1-((R)-2-methyloxiran-2-yl)-1-oxo-3-phenylpropan-2-yl)amino)-1-oxopropan-2-yl)-2-methyl-5-oxopyrrolidine-2-carboxamide], in that order: 1380 µg/mL (≈ 2720 µM), 4300 nM, 4080 nM, 1610 nM and 1160 nM.
Consider `COc1ccc(C[C@H](NC(=O)[C@@H](C)NC(=O)c2ccncc2)C(=O)N[C@@H](CC2CCCC2)C(=O)[C@@]2(C)CO2)cc1` [Compound C-2033, N—((R)-1-(((S)-1-(((S)-3-cyclopentyl-1-((R)-2-methyloxiran-2-yl)-1-oxopropan-2-yl)amino)-3-(4-methoxyphenyl)-1-oxopropan-2-yl)amino)-1-oxopropan-2-yl)isonicotinamide], for which, in “Solubility pH 7”, the solubility worked out at 165 µg/mL (≈ 299 µM). Besides, the IC50 was greater than 250000 nM against β5 (MOLT4 lysate Hu 1 h), 10100 nM in data set [1], 1450 nM in data set [2] and 46700 nM at LMP7 (MOLT4 lysate Hu 1 h).
